From ChEMBL document CHEMBL1201862, “PubChem BioAssay data set” (2004)
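Assay format: 96-well plates, 48-hour exposure. GI50 marks 50% less growth.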 The source made the active and inactive calls. Rule as the data show it: active = GI50 up to about 1.1 µM and inactive = higher.

Tests used:
Assay in all cases: inhibition of tumour cell growth, NCI panel, 48 h
OVCAR-4 = tested on: OVCAR-4
OVCAR-8 = tested on: OVCAR-8
SR = tested on: SR
ACHN = tested on: ACHN
DLD-1 = tested on: DLD-1
M19-MEL = tested on: M19-MEL
KM-20L2 = tested on: KM-20L2
KM12 = tested on: KM12
DMS-114 = tested on: DMS-114
EKVX = tested on: EKVX
LOX IMVI = tested on: LOX IMVI
Malme-3M = tested on: Malme-3M
SNB-78 = tested on: SNB-78
SNB-19 = tested on: SNB-19
HT-29 = tested on: HT-29
MOLT-4 = tested on: MOLT-4
U-251 = tested on: U-251
HCT-116 = tested on: HCT-116
COLO 205 = tested on: COLO 205
HCC 2998 = tested on: HCC 2998
HCT-15 = tested on: HCT-15
A498 = tested on: A498
CAKI-1 = tested on: CAKI-1
SF-539 = tested on: SF-539
TK-10 = tested on: TK-10
OVCAR-5 = tested on: OVCAR-5
SK-MEL-2 = tested on: SK-MEL-2
K562 = tested on: K562
NCI-H23 = tested on: NCI-H23
HL-60 = tested on: HL-60
SN12C = tested on: SN12C
SK-OV-3 = tested on: SK-OV-3
M14 = tested on: M14
SF-295 = tested on: SF-295
UO-31 = tested on: UO-31
UACC-257 = tested on: UACC-257
DMS-273 = tested on: DMS-273
IGROV-1 = tested on: IGROV-1
HOP-62 = tested on: HOP-62
LXFL 529 = tested on: LXFL 529
NCI-H522 = tested on: NCI-H522
CCRF-CEM = tested on: CCRF-CEM
NCI-H460 = tested on: NCI-H460
SF-268 = tested on: SF-268
UACC-62 = tested on: UACC-62
SK-MEL-5 = tested on: SK-MEL-5
HOP-18 = tested on: HOP-18
SNB-75 = tested on: SNB-75
A549 = tested on: A549
HOP-92 = tested on: HOP-92
NCI-H226 = tested on: NCI-H226
XF498 = tested on: XF498
SW-620 = tested on: SW-620
OVCAR-3 = tested on: OVCAR-3
SK-MEL-28 = tested on: SK-MEL-28
RPMI-8226 = tested on: RPMI-8226
786-0 = tested on: 786-0

CCCCNC(=O)CCN(C(=O)O)S(=O)(=O)c1ccc(NC(=O)c2ccccc2)cc1
GI50 (OVCAR-4): > 100 µM (inactive) | GI50 (OVCAR-8): > 100 µM (inactive) | GI50 (SR): > 100 µM (inactive) | GI50 (ACHN): > 100 µM (inactive) | GI50 (DLD-1): > 100 µM (inactive) | GI50 (M19-MEL): 79.4 µM (inactive) | GI50 (KM-20L2): > 100 µM (inactive) | GI50 (KM12): > 100 µM (inactive) | GI50 (DMS-114): > 100 µM (inactive) | GI50 (EKVX): > 100 µM (inactive) | GI50 (LOX IMVI): 18.8 µM (inactive) | GI50 (Malme-3M): > 100 µM (inactive) | GI50 (SNB-78): > 100 µM (inactive) | GI50 (SNB-19): > 100 µM (inactive) | GI50 (HT-29): 22 µM (inactive) | GI50 (MOLT-4): > 100 µM (inactive) | GI50 (U-251): 77.6 µM (inactive) | GI50 (HCT-116): > 100 µM (inactive) | GI50 (COLO 205): 64.3 µM (inactive) | GI50 (HCC 2998): > 100 µM (inactive) | GI50 (HCT-15): > 100 µM | GI50 (A498): > 100 µM (inactive) | GI50 (CAKI-1): > 100 µM (inactive) | GI50 (SF-539): > 100 µM (inactive) | GI50 (TK-10): > 100 µM (inactive) | GI50 (OVCAR-5): > 100 µM (inactive) | GI50 (SK-MEL-2): > 100 µM (inactive) | GI50 (K562): 37 µM (inactive) | GI50 (NCI-H23): > 100 µM (inactive) | GI50 (HL-60): > 100 µM (inactive) | GI50 (SN12C): > 100 µM (inactive) | GI50 (SK-OV-3): > 100 µM (inactive) | GI50 (M14): > 100 µM (inactive) | GI50 (SF-295): > 100 µM (inactive) | GI50 (UO-31): > 100 µM (inactive) | GI50 (UACC-257): > 100 µM (inactive) | GI50 (DMS-273): 30.4 µM (inactive) | GI50 (IGROV-1): > 100 µM (inactive) | GI50 (HOP-62): > 100 µM (inactive) | GI50 (LXFL 529): > 100 µM (inactive) | GI50 (NCI-H522): > 100 µM (inactive) | GI50 (CCRF-CEM): > 100 µM (inactive) | GI50 (NCI-H460): > 100 µM (inactive) | GI50 (SF-268): > 100 µM (inactive) | GI50 (UACC-62): > 100 µM (inactive) | GI50 (SK-MEL-5): > 100 µM (inactive) | GI50 (HOP-18): > 100 µM (inactive) | GI50 (SNB-75): > 100 µM (inactive) | GI50 (A549): > 100 µM (inactive) | GI50 (HOP-92): > 100 µM (inactive) | GI50 (NCI-H226): > 100 µM (inactive) | GI50 (XF498): > 100 µM (inactive) | GI50 (SW-620): 14 µM (inactive) | GI50 (OVCAR-3): > 100 µM (inactive) | GI50 (SK-MEL-28): > 100 µM (inactive) | GI50 (RPMI-8226): > 100 µM (inactive) | GI50 (786-0): 11.9 µM (inactive)
